In patent publication US20240101546A1, “HETEROARYL-ACETYLENES, PHARMACEUTICAL COMPOSITIONS THEREOF, AND THEIR THERAPEUTIC APPLICATIONS” (Eubulus Biotherapeutics Inc., priority 2020, published 2024):

test system: lung cancer cell line NCI-H82; experiment: Cell proliferation assay, NCI-H82 (CELL-TITER GLO); assay type: cell-based; settings: Homo sapiens, NCI-H82, 72 h, NCI-H82 cells, 72 h incubation, cell viability by CELL-TITER GLO, top concentration 1 μM; read-out: EC50, Inhibition of NCl-H82 Cell Proliferation
How it was run: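 NCI-H82 cells, 1,000 per well in RPMI1640, were treated after overnight plating with a 3-fold dilution series from 1 μM. Viability read by CellTiter-Glo luminescence after 72 h. EC50 derived from the curves.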

SMILES	EC50 [nM]
C#Cc1nnc(NC(=O)N[C@@H](CO)c2ccc(-c3cccc4ncsc34)cc2)s1 [Compound A120, (R)-1-(1-(4-(Benzo[d]thiazol-7-yl)phenyl)-2-hydroxyethyl)-3-(5-ethynyl-1,3,4-thiadiazol-2-yl)urea]	≤ 200
C#Cc1nc(NC(=O)N[C@@H](CO)c2ccc(-c3cccc4ncsc34)cc2)ns1 [Compound A122, (R)-1-(1-(4-(Benzo[d]thiazol-7-yl)phenyl)-2-hydroxyethyl)-3-(5-ethynyl-1,2,4-thiadiazol-3-yl)urea]	200 to 1000
C#Cc1ccnc(NC(=O)N[C@@H](CO)c2ccc(-c3cccc(N4CCCC4)n3)cc2)n1 [Compound A123, (R)-1-(4-Ethynylpyrimidin-2-yl)-3-(2-hydroxy-1-(4-(6-(pyrrolidin-1-yl)pyridin-2-yl)phenyl)ethyl)urea]	≤ 200
C#Cc1cccc(NC(=O)N[C@@H](CO)c2ccc(-c3cccc(N4CCCC4)n3)cc2)n1 [Compound A124, (R)-1-(6-Ethynylpyridin-2-yl)-3-(2-hydroxy-1-(4-(6-(pyrrolidin-1-yl)pyridin-2-yl)phenyl)ethyl)urea]	200 to 1000
C#Cc1nccc(NC(=O)N[C@@H](CO)c2ccc(-c3cccc(N4CCCC4)n3)cc2)n1 [Compound A125, (R)-1-(2-Ethynylpyrimidin-4-yl)-3-(2-hydroxy-1-(4-(6-(pyrrolidin-1-yl)pyridin-2-yl)phenyl)ethyl)urea]	≤ 200
C#Cc1nc(NC(=O)N[C@@H](CO)c2ccc(N3CC(F)(F)C3)cc2)cs1 [Compound A126, (R)-1-(1-(4-(3,3-Difluoroazetidin-1-yl)phenyl)-2-hydroxyethyl)-3-(2-ethynyl-thiazol-4-yl)urea]	≤ 200
C#Cc1nc(NC(=O)N[C@@H](COC(N)=O)c2ccc(N3CC(F)(F)C3)cc2)cs1 [Compound A127, (R)-2-(4-(3,3-Difluoroazetidin-1-yl)phenyl)-2-(3-(2-ethynylthiazol-4-yl)ureido)-ethyl carbamate]	≤ 200
C#Cc1nc(NC(=O)N[C@@H](CO)c2ccc(N3CCCC3)cc2)cs1 [Compound A128, (R)-1-(2-Ethynylthiazol-4-yl)-3-(2-hydroxy-1-(4-(pyrrolidin-1-yl)phenyl)ethyl)-urea]	≤ 200
C#Cc1nc(NC(=O)N[C@@H](CO)c2ccc(N3CCCC3=O)cc2)cs1 [Compound A129, (R)-1-(2-Ethynylthiazol-4-yl)-3-(2-hydroxy-1-(4-(2-oxopyrrolidin-1-yl)phenyl)-ethyl)urea]	≤ 200
C#Cc1nc(NC(=O)N[C@@H](CO)c2ccc(N3CCC(F)(F)C3)cc2)cs1 [Compound A130, (R)-1-(1-(4-(3,3-Difluoropyrrolidin-1-yl)phenyl)-2-hydroxyethyl)-3-(2-ethynyl-thiazol-4-yl)urea]	≤ 200
C#Cc1nc(NC(=O)N[C@@H](CO)c2ccc(N3CCCCC3=O)cc2)cs1 [Compound A131, (R)-1-(2-Ethynylthiazol-4-yl)-3-(2-hydroxy-1-(4-(2-oxopiperidin-1-yl)phenyl)-ethyl)urea]	≤ 200
C#Cc1nc(NC(=O)N[C@@H](CO)c2ccc(-n3ccccc3=O)cc2)cs1 [Compound A132, (R)-1-(2-Ethynylthiazol-4-yl)-3-(2-hydroxy-1-(4-(2-oxopyridin-1(2H)-yl)phenyl)-ethyl)urea]	≤ 200
C#Cc1nc(NC(=O)N[C@@H](CO)c2ccc(N3CCOCC3)cc2)cs1 [Compound A133, (R)-1-(2-Ethynylthiazol-4-yl)-3-(2-hydroxy-1-(4-morpholinophenyl)ethyl)urea]	≤ 200
C#Cc1nc(NC(=O)N[C@@H](CO)c2ccc(N3CCOCC3=O)cc2)cs1 [Compound A134, (R)-1-(2-Ethynylthiazol-4-yl)-3-(2-hydroxy-1-(4-(3-oxomorpholino)phenyl)-ethyl)urea]	200 to 1000
C#Cc1nc(NC(=O)N[C@@H](CO)c2ccc(N3CCCCC3)cn2)cs1 [Compound A135, (R)-1-(2-Ethynylthiazol-4-yl)-3-(2-hydroxy-1-(5-(piperidin-1-yl)pyridin-2-yl)-ethyl)urea]	≤ 200
